Measured values as given in patent US12351559B2 (Biohaven Therapeutics Ltd., priority 2014, dated 2025).

The compounds below were run against T1, Kv7.2/7.3 (Homo sapiens, UniProt O43525+O43526) (assay: Kv7.2/7.3 activation assay, QPatch planar patch-clamp, single concentration screen). Details: Kv7.2/Kv7.3 co-expressing HEK cells, compound 3 μM, steady-state current at end of 2 s pulse to −30 mV.
T1 construct: host or cells: HEK cells, tetracycline-inducible expression
Type: cell-based
Set-up: key: <1.2-fold increase over baseline (−); +/−: as a range from <1.2-fold increase over baseline (−) up to >6-fold increase over baseline (+++); as a range from <1.2-fold increase over baseline (−) up to >6-fold increase over baseline (+++); as a range from <1.2-fold increase over baseline (−) up to >6-fold increase over baseline (+++); >6-fold increase over baseline (+++)

Kv7.2/7.3 Activity: increase in current over baseline | Structure (SMILES)
+/− | Cc1cc2nc(NC(=O)C[C@](C)(O)c3ccc(F)cc3)n(C3CCC3)c2cc1C#N [Example 125, (S)-N-(6-cyano-1-cyclobutyl-5-methyl-1H-benzo[d]imidazol-2-yl)-3-(4-fluorophenyl)-3-hydroxybutanamide]
++ | Cc1cc2nc(NC(=O)C[C@](C)(O)c3ccccc3F)n(C3CCC3)c2cc1C#N [Example 126, (S)-N-(6-cyano-1-cyclobutyl-5-methyl-1H-benzo[d]imidazol-2-yl)-3-(2-fluorophenyl)-3-hydroxybutanamide]
+ | Cc1cc2nc(NC(=O)CC(C)(C)C)n(C(C)(C)C)c2cc1C#N [Example 127, N-(1-(tert-butyl)-6-cyano-5-methyl-1H-benzo[d]imidazol-2-yl)-3,3-dimethylbutanamide]
+/− | Cc1cc2nc(NC(=O)CC(C)(C)O)n(C(C)(C)C)c2cc1C#N [Example 128, N-(1-(tert-butyl)-6-cyano-5-methyl-1H-benzo[d]imidazol-2-yl)-3-hydroxy-3-methylbutanamide]
+/− | Cc1cc2nc(NC(=O)C3CC(F)(F)C3)n(C(C)(C)C)c2cc1C#N [Example 129, N-(1-(tert-butyl)-6-cyano-5-methyl-1H-benzo[d]imidazol-2-yl)-3,3-difluorocyclobutane-1-carboxamide]
+/− | Cc1cc2nc(NC(=O)CC(C)(C)O)n(C3CCC3)c2cc1C#N [Example 130, N-(6-cyano-1-cyclobutyl-5-methyl-1H-benzo[d]imidazol-2-yl)-3-hydroxy-3-methylbutanamide]
+/− | CC(C)(O)c1ccc2nc(NC(=O)CC(O)(C(F)(F)F)C(F)(F)F)n(-c3ccc(F)cc3)c2c1 [Example 131, 4,4,4-trifluoro-N-(1-(4-fluorophenyl)-6-(2-hydroxypropan-2-yl)-1H-benzo[d]imidazol-2-yl)-3-hydroxy-3-(trifluoromethyl)butanamide]
+/− | C[C@@](O)(CC(=O)Nc1nc2cc(C(F)(F)F)cc(F)c2n1C1CCC1)C(F)(F)F [Example 132, (R)-N-(1-cyclobutyl-7-fluoro-5-(trifluoromethyl)-1H-benzo[d]imidazol-2-yl)-4,4,4-trifluoro-3-hydroxy-3-methylbutanamide]
+ | CC(C)(O)CC(=O)Nc1nc2cc(C(F)(F)F)cc(F)c2n1C1CCC1 [Example 133, N-(1-cyclobutyl-7-fluoro-5-(trifluoromethyl)-1H-benzo[d]imidazol-2-yl)-3-hydroxy-3-methylbutanamide]
+/− | Cc1cc2nc(NC(=O)C[C@](C)(O)C(F)(F)F)n(C(C)(C)C)c2cc1C#N [Example 134, (S)-N-(1-(tert-butyl)-6-cyano-5-methyl-1H-benzo[d]imidazol-2-yl)-4,4,4-trifluoro-3-hydroxy-3-methylbutanamide]
+/− | Cc1cc2nc(NC(=O)C[C@@](C)(O)C(F)(F)F)n(C(C)(C)C)c2cc1C#N [Example 135, (R)-N-(1-(tert-butyl)-6-cyano-5-methyl-1H-benzo[d]imidazol-2-yl)-4,4,4-trifluoro-3-hydroxy-3-methylbutanamide]
+ | CC(C)(O)CC(=O)Nc1nc2ccc(C(F)(F)F)cc2n1-c1cc(F)cc(F)c1 [Example 136, N-(1-(3,5-difluorophenyl)-6-(trifluoromethyl)-1H-benzo[d]imidazol-2-yl)-3-hydroxy-3-methylbutanamide]
+ | CC(C)(O)CC(=O)Nc1nc2ccc(C(F)(F)F)cc2n1-c1ccc(OC(F)(F)F)cc1 [Example 137, 3-hydroxy-3-methyl-N-(1-(4-(trifluoromethoxy)phenyl)-6-(trifluoromethyl)-1H-benzo[d]imidazol-2-yl)butanamide]
+ | CC1(n2c(NC(=O)C[C@](C)(O)c3ccc(F)cc3)nc3ccc(C#N)cc32)CCC1 [Example 138, (S)-N-(6-cyano-1-(1-methylcyclobutyl)-1H-benzo[d]imidazol-2-yl)-3-(4-fluorophenyl)-3-hydroxybutanamide]
+ | CC1(n2c(NC(=O)C[C@](C)(O)c3ccccc3Cl)nc3ccc(C#N)cc32)CCC1 [Example 139, (S)-3-(2-chlorophenyl)-N-(6-cyano-1-(1-methylcyclobutyl)-1H-benzo[d]imidazol-2-yl)-3-hydroxybutanamide]
+/− | CC1(n2c(NC(=O)C[C@](C)(O)c3ccc(Cl)cc3)nc3ccc(C#N)cc32)CCC1 [Example 140, (S)-3-(4-chlorophenyl)-N-(6-cyano-1-(1-methylcyclobutyl)-1H-benzo[d]imidazol-2-yl)-3-hydroxybutanamide]
+ | O=C(CC1(O)CCC1)Nc1nc2ccc(C(F)(F)F)cc2n1-c1cc(F)cc(F)c1 [Example 141, N-(1-(3,5-difluorophenyl)-6-(trifluoromethyl)-1H-benzo[d]imidazol-2-yl)-2-(1-hydroxycyclobutyl)acetamide]
++ | O=C(CC1(O)CCC1)Nc1nc2ccc(C(F)(F)F)cc2n1-c1ccc(OC(F)(F)F)cc1 [Example 142, 2-(1-hydroxycyclobutyl)-N-(1-(4-(trifluoromethoxy)phenyl)-6-(trifluoromethyl)-1H-benzo[d]imidazol-2-yl)acetamide]
++ | CC(C)(O)CC(=O)Nc1nc2ccc(C(F)(F)F)cc2n1-c1ccc(F)c(F)c1 [Example 143, N-(1-(3,4-difluorophenyl)-6-(trifluoromethyl)-1H-benzo[d]imidazol-2-yl)-3-hydroxy-3-methylbutanamide]
+ | CC(C)(O)CC(=O)Nc1nc2ccc(C(F)(F)F)cc2n1-c1ccc(OC(F)(F)F)c(F)c1 [Example 144, N-(1-(3-fluoro-4-(trifluoromethoxy)phenyl)-6-(trifluoromethyl)-1H-benzo[d]imidazol-2-yl)-3-hydroxy-3-methylbutanamide]
++ | O=C(CC1(O)CCC1)Nc1nc2ccc(C(F)(F)F)cc2n1-c1ccc(OC(F)(F)F)c(F)c1 [Example 145, N-(1-(3-fluoro-4-(trifluoromethoxy)phenyl)-6-(trifluoromethyl)-1H-benzo[d]imidazol-2-yl)-2-(1-hydroxycyclobutyl)acetamide]
